Assay results published in patent publication US20220267288A1, “CARDIAC THERAPEUTIC” (priority 2019, published 2022).
Where two headings read alike, the source gives them in different places.

Legend:
[1] = cited from earlier work
dogs = assay: Electrophysiological variables (AERP, VERP, repolarization periods) in halothane-anesthetized dogs; type: in vivo, dog; conditions: 3 mg/kg
Procedure: Animals were obtained through Kitayama Labes Co., Ltd. (Nagano, Japan). All experiments were approved by the Toho University Animal Care and User Committee (No. 18-51-395) and performed according to the Guideline for the Care and Use of Laboratory Animals of Toho University.
The dogs were initially anesthetized with thiopental sodium (30 mg/kg, i.v.). After intubation with a cuffed endotracheal tube, anesthesia was maintained by inhalation of halothane (1% v/v) vaporized in oxygen with a volume-limited ventilator (SN-480-3; Shinano Manufacturing Co., Ltd., Tokyo, Japan). Tidal volume and respiratory rate were set at 20 mL/kg and 15 breaths/min, respectively. […] To prevent blood clotting, heparin calcium (100 IU/kg) was intravenously administered through a flush line of the catheter sheath placed at the right femoral vein.
The lead II electrocardiogram was obtained from the limb electrodes. The P-wave duration, PR interval, QRS width and QT interval were measured, and QT interval was corrected with Van de Water's formula: QTc=QT-0.087×(RR-1,000) with RR given in ms. The J-Tpeak and Tpeak-Tend were measured as follows. When the end of T-wave was obscure, we used the monophasic action potential (MAP) signal as a guide to estimate the end. The J-Tpeak was corrected for the heart rate with a coefficient as previously described (J-Tpeakc=J-Tpeak/RR^0.58 with RR given in seconds).
A standard 6-French, quad-polar electrodes catheter (Cordis-Webster Inc., Baldwin Park, Calif., USA) was positioned at the non-coronary cusp of the aortic valve through the left femoral artery to obtain the His bundle electrogram. Another 6-French, quad-polar electrode catheter (Cordis-Webster Inc.) was positioned at the sinus nodal areas of the right atrium through the right femoral vein to electrically pace and to record the local electrogram. A bi-directional steerable MAP recording/pacing combination catheter (1675P; EP Technologies, Inc., CA, USA) was positioned at the endocardium of the interventricular septum in the right ventricle through the left femoral vein to obtain MAP signals. The signals were amplified with a DC preamplifier (model 300; EP Technologies, Inc.). The duration of the MAP signals was measured as an interval, along a horizontal line corresponding to the diastolic baseline, from the MAP upstroke to the desired repolarization level. The interval (ms) at 90% repolarization was defined as MAP90.
The heart was electrically driven with a cardiac stimulator (SEC-3102; Nihon Kohden Co., Ltd.) via the pacing electrodes of the combination catheter placed in the right ventricle or the electrodes of the catheter placed at the right atrium. The stimulation pulses were rectangular in shape, 1-2 V (about twice the threshold voltage) and 1 ms duration. The MAP90 of the ventricle was measured during sinus rhythm (MAP90(sinus)) and at a pacing cycle length of 400 ms (MAP90(CL400)) and 300 ms (MAP90(CL300)). The atrial effective refractory period (AERP) and ventricular effective refractory period (VERP) were assessed with the programmed electrical stimulation. The pacing protocol consisted of 5 beats of basal stimuli in a cycle length of 400 ms followed by an extra stimulus of various coupling intervals. Starting in the late diastole, the coupling interval was shortened in 5-ms decrements until the additional stimulus could no longer elicit a response. The AERP and VERP were defined as the shortest coupling interval that could produce a response. The duration of the terminal repolarization period of the ventricle, reflecting phase-3 repolarization time of the action potential, was calculated by the difference between the MAP90(CL400) and VERP (terminal repolarization period=MAP90(CL400)−VERP) at the same site to estimate the extent of electrical vulnerability of the ventricular muscle.

[2] = Aqueous solubility, MultiscreenHTS PCF Filter Plates; type: physicochemical; conditions: aqueous buffer; universal buffer (pH 7.4)
Procedure: The aqueous solubility of each compound was measured in universal buffer (pH 7.4) using MultiscreenHTS PCF Filter Plates. The effective permeability of each compound was measured using the parallel artificial membrane permeability assay (PAMPA).

CYP2J2 = molecular target: T1, CYP2J2 (Homo sapiens, UniProt P51589); parameters: endogenous in cells; host or cells: hiPSC-CM (from human foreskin fibroblasts); conditions: PBPK parameter; read-out: Reversible inhibition Ki CYP2J2; cited from earlier work
T1 sequence (P51589 1-502): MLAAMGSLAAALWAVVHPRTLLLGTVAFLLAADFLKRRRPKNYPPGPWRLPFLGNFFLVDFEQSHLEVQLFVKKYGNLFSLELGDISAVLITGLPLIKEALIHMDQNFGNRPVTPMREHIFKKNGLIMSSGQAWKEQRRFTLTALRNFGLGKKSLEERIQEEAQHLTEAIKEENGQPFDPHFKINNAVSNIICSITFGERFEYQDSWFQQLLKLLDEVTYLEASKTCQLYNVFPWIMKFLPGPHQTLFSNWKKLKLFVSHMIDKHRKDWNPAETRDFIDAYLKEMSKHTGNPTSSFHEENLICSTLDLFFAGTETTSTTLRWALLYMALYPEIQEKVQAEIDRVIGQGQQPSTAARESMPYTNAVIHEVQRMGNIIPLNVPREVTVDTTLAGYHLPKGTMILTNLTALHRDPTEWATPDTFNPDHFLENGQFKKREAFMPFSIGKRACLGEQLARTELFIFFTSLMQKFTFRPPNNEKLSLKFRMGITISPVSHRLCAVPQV

**Q.** What does the source list for CCCCc1oc2ccc(NS(C)(=O)=O)cc2c1C(=O)c1ccc(OCCCN(CCCC)CCCC)cc1.Cl [Dronedarone]?
**A.** Caco-2 permeability ([1]; PBPK parameter): 0.595 ×10⁻⁶ cm/s; Kp of tissues: Adipose ([1]; PBPK parameter): 1; Kp of tissues: Heart ([1]; PBPK parameter): 1; Kp of tissues: Kidney ([1]; PBPK parameter): 1; Kp of tissues: Liver ([1]; PBPK parameter): 38.05; Kp of tissues: Lung ([1]; PBPK parameter): 64.01; fu ([1]; PBPK parameter): 0.003; log P ([1]; PBPK parameter): 6.46; pKa ([1]; PBPK parameter, monoprotic base): 9.4; Solubility-pH profile ([1]; pH 3): 1.6 mg/mL; Solubility-pH profile ([1]; pH 4): 1.6 mg/mL; Solubility-pH profile ([1]; pH 5): 1.5 mg/mL; Solubility-pH profile ([1]; pH 6): 0.1 mg/mL; Solubility-pH profile ([1]; pH 7): 0.01 mg/mL; ΔAERP (dogs; 20 min after administration): +43; ΔVERP (dogs; 20 min after administration): +23; ΔJ-Tpeakc (early repolarization period) (dogs; 60 min after administration): +7; ΔTRP (terminal repolarization period) (dogs; 60 min after administration): +11; ΔTpeak-Tend (late repolarization period) (dogs; 60 min after administration): +25; solubility [2]: 3.22 µg/mL; Ki (CYP2J2): 0.93 µM

**Q.** With Cl.[2H]c1c(NS(C)(=O)=O)c([2H])c2c(C(=O)c3ccc(OCCCN(CCCC)CCCC)cc3)c(CCCC)oc2c1[2H] [Poyendarone, Methanesulfonamide, N-(2-butyl-3-(4-(3-(dibutylamino)propoxy)benzoyl)-1-benzo(4,6,7-d3)-furan-5-yl)hydrochloride] as the compound, how does the Caco-2 permeability ([1]; PBPK parameter, assumed) read?
**A.** 0.595 ×10⁻⁶ cm/s

**Q.** What about the “Kp of tissues: Liver” value ([1]; PBPK parameter, assumed) of the same compound?
**A.** 38.05

**Q.** And the “Kp of tissues: Lung” value ([1]; PBPK parameter, assumed)?
**A.** 64.01

**Q.** And the pKa ([1]; PBPK parameter, assumed)?
**A.** 9.4

**Q.** What about the “Kp of tissues: Adipose” value ([1]; PBPK parameter) of the same compound?
**A.** 1

**Q.** And the “Kp of tissues: Heart” value ([1]; PBPK parameter)?
**A.** 1

**Q.** And the “Kp of tissues: Kidney” value ([1]; PBPK parameter)?
**A.** 1

**Q.** And the “log P” value ([1]; PBPK parameter)?
**A.** 6.442

**Q.** What about the “Additional HLM clearance” value ([1]; assumed) of the same compound?
**A.** 55 μL/min/mg microsomal protein

**Q.** And the Intrinsic solubility ([1]; assumed)?
**A.** 2.01 × 10^−3 (assumed) mg/mL

**Q.** What about the ΔAERP (dogs; 30 min after administration) of the same compound?
**A.** +25

**Q.** What about the ΔVERP (dogs; 30 min after administration) of the same compound?
**A.** +14

**Q.** And the ΔAERP (dogs; 45 min after administration)?
**A.** +34

**Q.** And the “ΔJ-Tpeakc (early repolarization period)” value (dogs; 45 min after administration)?
**A.** −5

**Q.** And the “ΔTRP (terminal repolarization period)” value (dogs; 45 min after administration)?
**A.** −1.5

**Q.** And the “ΔTpeak-Tend (late repolarization period)” value (dogs; 45 min after administration)?
**A.** +1

**Q.** And the ΔVERP (dogs; 45 min after administration)?
**A.** +13

**Q.** And the solubility [2]?
**A.** 2.43 µg/mL

**Q.** What about the Ki (CYP2J2) of the same compound?
**A.** 0.93 µM
